# Test results as given in patent publication US20250163009A1, “BENZOTHIA(DIA)ZEPINE COMPOUNDS FOR TREATMENT OF HBV AND HDV” (Assembly Biosciences, Inc., priority 2022, published 2025).
# Tested on: HBV
# Assay: HepG2-NTCP infection protocol, HBeAg quantification by ECL-ELISA
# Format: cell-based
# Conditions: HepG2-NTCP cells infected with HBV at MOI 50, compound 24 hours, then 72 hours, HBeAg in supernatant
# Experimental: HepG2 cells expressing the sodium taurocholate cotransporting polypeptide (HepG2-NTCP) were maintained in culture using HepG2-NTCP growth medium (DMEM (HyClone, Cat #SH30243.02) supplemented with 10% FBS, 150 μg/mL G418 (Alfa Aesar, Cat #J62671), 50 U/mL penicillin-streptomycin (Invitrogen, Cat #15140-122), and 0.5 μg/mL blasticidin (Sigma, Cat #15205)). Prior to infection, the cells were washed twice with 1×DPBS (Invitrogen, Cat #14190-136) and treated with 3 mL of 0.05% trypsin (Invitrogen, Cat #25200-056) to dissociate the cells. Following dissociation, 10 mL of HepG2-NTCP growth medium was added to the cells to neutralize the trypsin and the cells were then centrifuged at 1,300 rpm for 5 minutes. Following centrifugation, the cells were resuspended in 10 mL of HepG2-NTCP growth medium, counted, and then centrifuged at 1,300 rpm for 5 minutes. The cell pellet was resuspended in DMEM supplemented with 5% FBS, 50 U/mL penicillin-streptomycin, 4% PEG-8000 (Hamilton Research, Cat #HR2-515), and 1% DMSO (Sigma, Cat #D4540) to a density of 5.6×10^5 cells/mL and infected with HBV at an MOI of 50. Immediately after infection, 90 μL of the cell/HBV mixture was added to a 96-well plate containing 10 μL of compound and incubated at 37° C. for 24 hours (2% final DMSO concentration). After the incubation, the infection media was removed and replaced with DMEM supplemented with 5% FBS, 50 U/mL penicillin-streptomycin, and 1% DMSO and incubated for an additional 72 hours. At the end of the incubation, the plates were spun at 1,800 rpm for 8 minutes and the supernatant was removed for HBeAg quantification using electrochemiluminescence enzyme-linked immunosorbent assays (ECL-ELISA).
# To conduct the HBeAg ECL-ELISA, Lumitrack high-binding 96-well plates (Greiner, Cat #655074) were treated with 625 ng/mL HBeAg mAb (Biocheck, Cat #70426) in 1×DPBS for 2 hours at 25° C. with shaking. The HBeAg mAb solution was then removed and the plates treated with 1×DPBS containing 0.5% bovine serum albumin (BSA) (Sigma, Cat #A7030-100 g) for 2 hours at 25° C. with shaking. The HBeAg-coated plates were then washed 4 times with 1×DPBS containing 0.05% Tween 20 (DPBS-T) (Thermo Fisher Scientific, Cat #J61544-K2). Following the wash, 90 μL of HRP-conjugated antibody (Fitzgerald, Cat #61-H10K), diluted 1:8,000 in 1×DPBS-T containing 0.5% BSA, was added to the HBeAg-coated plates along with 10 μL of sample. The plates were then incubated for 2 hours at 25° C. with shaking. Following the incubation, the sample was then removed and 200 μL of 1×PBS-T was added and the plates were incubated for 10 minutes at 25° C. with shaking. The plates were then washed 6 times with 1×PBS-T and blotted dry. 80 μL of ECL substrate (Millipore, Cat #WBKLS0500) was then added to the plate and the luminescence was measured using a Tecan M1000 Pro plate reader.
smiles,measurement,setting,value
CCCC[C@H]1CN([C@@H]2CCN(C)C2)c2cc(SC)c(O/C=C(\F)C(=O)O)cc2S(=O)(=O)N1C (relative stereo) [Example 54],EC50,Hepatitis B virus,1000 to 5000 nM
"CCCCC1CN(C2CCC(F)(F)CC2)c2cc(SC)c(O/C=C(\F)C(=O)O)cc2S(=O)(=O)N1C (single isomer, unassigned) [Example 2a]",EC50,,< 100 nM
"CCCCC1CN(C2CCC(F)(F)CC2)c2cc(SC)c(O/C=C(\F)C(=O)O)cc2S(=O)(=O)N1C (single isomer, unassigned) [Example 2b]",EC50,,100 to 1000 nM
CCCC[C@H]1CN(C2CCN(C)C2)c2cc(SC)c(O/C=C(\F)C(=O)O)cc2S(=O)(=O)N1C (stereo in doubt) [Example 55],EC50,Hepatitis B virus,1000 to 5000 nM
"CCCCC1CN(C2CCC(F)(F)CC2)c2cc(SC)c(O/C=C(\F)C(=O)O)cc2S(=O)(=O)N1C (stereo not drawn) [Example 2, (Z)-3-((3-butyl-5-(4,4-difluorocyclohexyl)-2-methyl-7-(methylthio)-1,1-dioxido-2,3,4,5-tetrahydrobenzo[f][1,2,5]thiadiazepin-8-yl)oxy)-2-fluoroacrylic acid]",EC50,Hepatitis B virus,< 100 nM
CCCCC1CN(C2CCC(F)(F)CC2)c2cc(SC)c(O/C=C/C(=O)O)cc2S(=O)(=O)N1C (stereo not drawn) [Example 3],EC50,Hepatitis B virus,< 100 nM
CCCCC1CN(c2cccnc2)c2cc(SC)c(O/C=C/C(=O)O)cc2S(=O)(=O)N1C (stereo not drawn) [Example 4],EC50,Hepatitis B virus,1000 to 5000 nM
CCCCC1CN(c2ccccn2)c2cc(SC)c(O/C=C/C(=O)O)cc2S(=O)(=O)N1C (stereo not drawn) [Example 5],EC50,Hepatitis B virus,100 to 1000 nM
CCCCC1CN(c2ccc(N3CCCC3)cc2)c2cc(SC)c(O/C=C/C(=O)O)cc2S(=O)(=O)N1C (stereo not drawn) [Example 8],EC50,Hepatitis B virus,< 100 nM
C#Cc1ccc(N2CC(CCCC)N(C)S(=O)(=O)c3cc(O/C=C/C(=O)O)c(SC)cc32)cc1 (stereo not drawn) [Example 9],EC50,Hepatitis B virus,< 100 nM
CCCCC1CN(Cc2ccc(F)cc2)c2cc(SC)c(O/C=C(\F)C(=O)O)cc2S(=O)(=O)N1C (stereo not drawn) [Example 10],EC50,Hepatitis B virus,< 100 nM
CCCCC1CN(c2ccc(N3CCCC3)cc2)c2cc(SC)c(O/C=C(\F)C(=O)O)cc2S(=O)(=O)N1C (stereo not drawn) [Example 11],EC50,Hepatitis B virus,< 100 nM
CCCCC1CN(Cc2ccc(F)cc2)c2cc(SC)c(O/C=C(\F)C(=O)OCC)cc2S(=O)(=O)N1C (stereo not drawn) [Example 12],EC50,Hepatitis B virus,100 to 1000 nM
CCCCC1CN(Cc2ccc(SC)cc2)c2cc(SC)c(O/C=C(\F)C(=O)OCC)cc2S(=O)(=O)N1C (stereo not drawn) [Example 13],EC50,Hepatitis B virus,100 to 1000 nM
CCCCC1CN(C2CCCC2)c2cc(SC)c(O/C=C/C(=O)O)cc2S(=O)(=O)N1C (stereo not drawn) [Example 14],EC50,Hepatitis B virus,100 to 1000 nM
CCCCC1CN(Cc2ccccc2)c2cc(SC)c(O/C=C/C(=O)O)cc2S(=O)(=O)N1C (stereo not drawn) [Example 15],EC50,Hepatitis B virus,100 to 1000 nM
CCCCC1CN(C2CCCCC2)c2cc(SC)c(O/C=C(\F)C(=O)O)cc2S(=O)(=O)N1C (stereo not drawn) [Example 16],EC50,Hepatitis B virus,< 100 nM
CCCCC1CN(Cc2ccc(SC)cc2)c2cc(SC)c(O/C=C(\F)C(=O)O)cc2S(=O)(=O)N1C (stereo not drawn) [Example 17],EC50,Hepatitis B virus,< 100 nM
CCCCC1CN(C2CCC(OC)CC2)c2cc(SC)c(O/C=C(\F)C(=O)OCC)cc2S(=O)(=O)N1C (stereo not drawn) [Example 18],EC50,Hepatitis B virus,< 100 nM
CCCCC1CN(C2CCOCC2)c2cc(SC)c(O/C=C(\F)C(=O)OCC)cc2S(=O)(=O)N1C (stereo not drawn) [Example 19],EC50,Hepatitis B virus,100 to 1000 nM
CCCCC1CN(c2ncccn2)c2cc(SC)c(O/C=C(\F)C(=O)OCC)cc2S(=O)(=O)N1C (stereo not drawn) [Example 20],EC50,Hepatitis B virus,< 100 nM
CCCCC1CN(C2CCCOC2)c2cc(SC)c(O/C=C(\F)C(=O)OCC)cc2S(=O)(=O)N1C (stereo not drawn) [Example 21],EC50,Hepatitis B virus,100 to 1000 nM
CCCCC1CN(C2CCOC2)c2cc(SC)c(O/C=C/C(=O)O)cc2S(=O)(=O)N1C (stereo not drawn) [Example 22],EC50,Hepatitis B virus,1000 to 5000 nM
CCCCC1CN(C2CCOCC2)c2cc(SC)c(O/C=C/C(=O)O)cc2S(=O)(=O)N1C (stereo not drawn) [Example 23],EC50,Hepatitis B virus,100 to 1000 nM
CCCCC1CN(c2ncccn2)c2cc(SC)c(O/C=C(\F)C(=O)O)cc2S(=O)(=O)N1C (stereo not drawn) [Example 24],EC50,Hepatitis B virus,100 to 1000 nM
CCCCC1CN(C2CCCOC2)c2cc(SC)c(O/C=C(\F)C(=O)O)cc2S(=O)(=O)N1C (stereo not drawn) [Example 25],EC50,Hepatitis B virus,< 100 nM
CCCCC1CN(C2CCOCC2)c2cc(SC)c(O/C=C(\F)C(=O)O)cc2S(=O)(=O)N1C (stereo not drawn) [Example 26],EC50,Hepatitis B virus,100 to 1000 nM
CC#CCN1CC(CCCC)N(C)S(=O)(=O)c2cc(O/C=C(\F)C(=O)O)c(SC)cc21 (stereo not drawn) [Example 27],EC50,Hepatitis B virus,< 100 nM
CCCCC1CN(Cc2ccccc2)c2cc(SC)c(O/C=C(\F)C(=O)O)cc2S(=O)(=O)N1C (stereo not drawn) [Example 28],EC50,Hepatitis B virus,< 100 nM
CCCCC1CN(C2CCC(F)CC2)c2cc(SC)c(O/C=C(\F)C(=O)OCC)cc2S(=O)(=O)N1C (stereo not drawn) [Example 29],EC50,Hepatitis B virus,100 to 1000 nM
CCCCC1CN(C2CCC(F)CC2)c2cc(SC)c(O/C=C(\F)C(=O)O)cc2S(=O)(=O)N1C (stereo not drawn) [Example 30],EC50,Hepatitis B virus,< 100 nM
CCCCC1CN(C2CCC(O)CC2)c2cc(SC)c(O/C=C(\F)C(=O)O)cc2S(=O)(=O)N1C (stereo not drawn) [Example 31],EC50,Hepatitis B virus,100 to 1000 nM
CCCCC1CN(C2CCCC2)c2cc(SC)c(O/C=C(\F)C(=O)O)cc2S(=O)(=O)N1C (stereo not drawn) [Example 32],EC50,Hepatitis B virus,< 100 nM
CCCCC1CN(Cc2cc(F)ccc2F)c2cc(SC)c(O/C=C(\F)C(=O)OCC)cc2S(=O)(=O)N1C (stereo not drawn) [Example 33],EC50,Hepatitis B virus,< 100 nM
CCCCC1CN(Cc2cc(F)ccc2F)c2cc(SC)c(O/C=C(\F)C(=O)O)cc2S(=O)(=O)N1C (stereo not drawn) [Example 34],EC50,Hepatitis B virus,< 100 nM
CCCCC1CN(CC2CCC(F)(F)CC2)c2cc(SC)c(O/C=C(\F)C(=O)OCC)cc2S(=O)(=O)N1C (stereo not drawn) [Example 35],EC50,Hepatitis B virus,100 to 1000 nM
CCCCC1CN(CC2CCC(F)(F)CC2)c2cc(SC)c(O/C=C(\F)C(=O)O)cc2S(=O)(=O)N1C (stereo not drawn) [Example 36],EC50,Hepatitis B virus,< 100 nM
CCCCC1CN(Cc2cccc(F)c2)c2cc(SC)c(O/C=C(\F)C(=O)OCC)cc2S(=O)(=O)N1C (stereo not drawn) [Example 37],EC50,Hepatitis B virus,< 100 nM
CCCCC1CN(Cc2cccc(SC)c2)c2cc(SC)c(O/C=C(\F)C(=O)OCC)cc2S(=O)(=O)N1C (stereo not drawn) [Example 38],EC50,Hepatitis B virus,100 to 1000 nM
CCCCC1CN(C(=O)c2ccccc2)c2cc(SC)c(O/C=C(\F)C(=O)OCC)cc2S(=O)(=O)N1C (stereo not drawn) [Example 39],EC50,Hepatitis B virus,1000 to 5000 nM
CCCCC1CN(Cc2cccc(F)c2)c2cc(SC)c(O/C=C(\F)C(=O)O)cc2S(=O)(=O)N1C (stereo not drawn) [Example 40],EC50,Hepatitis B virus,< 100 nM
CCCCC1CN(C(=O)c2ccccc2)c2cc(SC)c(O/C=C(\F)C(=O)O)cc2S(=O)(=O)N1C (stereo not drawn) [Example 41],EC50,Hepatitis B virus,1000 to 5000 nM
CCCCC1CN(Cc2ccc(F)c(F)c2)c2cc(SC)c(O/C=C(\F)C(=O)OCC)cc2S(=O)(=O)N1C (stereo not drawn) [Example 42],EC50,Hepatitis B virus,100 to 1000 nM
CCCCC1CN(Cc2ccc(F)c(F)c2)c2cc(SC)c(O/C=C(\F)C(=O)O)cc2S(=O)(=O)N1C (stereo not drawn) [Example 43],EC50,Hepatitis B virus,< 100 nM
CCCCC1CN(C(C)c2ccccc2)c2cc(SC)c(O/C=C(\F)C(=O)OCC)cc2S(=O)(=O)N1C (stereo not drawn) [Example 44],EC50,Hepatitis B virus,100 to 1000 nM
CCCCC1CN(C2CC3CCC2C3)c2cc(SC)c(O/C=C(\F)C(=O)O)cc2S(=O)(=O)N1C (stereo not drawn) [Example 45],EC50,Hepatitis B virus,1000 to 5000 nM
CCCCC1CN(C2CCNCC2)c2cc(SC)c(O/C=C(\F)C(=O)O)cc2S(=O)(=O)N1C (stereo not drawn) [Example 46],EC50,Hepatitis B virus,1000 to 5000 nM
CCCCC1CN(C2CCN(C)CC2)c2cc(SC)c(O/C=C(\F)C(=O)O)cc2S(=O)(=O)N1C (stereo not drawn) [Example 47],EC50,Hepatitis B virus,1000 to 5000 nM
CCCCC1CN(C2CCN(C(C)=O)CC2)c2cc(SC)c(O/C=C(\F)C(=O)O)cc2S(=O)(=O)N1C (stereo not drawn) [Example 48],EC50,Hepatitis B virus,1000 to 5000 nM
CCCCC1CN(c2nccs2)c2cc(SC)c(O/C=C(\F)C(=O)O)cc2S(=O)(=O)N1C (stereo not drawn) [Example 49],EC50,Hepatitis B virus,100 to 1000 nM
CCCCC1CN(C2CCOC2)c2cc(SC)c(O/C=C(\F)C(=O)O)cc2S(=O)(=O)N1C (stereo not drawn) [Example 50],EC50,Hepatitis B virus,100 to 1000 nM
CCCCC1CN(C2CCC(N)CC2)c2cc(SC)c(O/C=C(\F)C(=O)O)cc2S(=O)(=O)N1C (stereo not drawn) [Example 51],EC50,Hepatitis B virus,1000 to 5000 nM
CCCCC1CN(C(C)c2ccccc2)c2cc(SC)c(O/C=C(\F)C(=O)O)cc2S(=O)(=O)N1C (stereo not drawn) [Example 52],EC50,Hepatitis B virus,< 100 nM
CCCCC1CN(c2ccn(C)n2)c2cc(SC)c(O/C=C(\F)C(=O)O)cc2S(=O)(=O)N1C (stereo not drawn) [Example 53],EC50,Hepatitis B virus,100 to 1000 nM
